The target in the assay is T1, human CGT (Homo sapiens, UniProt Q16880).
T1 sequence (Q16880 21-541): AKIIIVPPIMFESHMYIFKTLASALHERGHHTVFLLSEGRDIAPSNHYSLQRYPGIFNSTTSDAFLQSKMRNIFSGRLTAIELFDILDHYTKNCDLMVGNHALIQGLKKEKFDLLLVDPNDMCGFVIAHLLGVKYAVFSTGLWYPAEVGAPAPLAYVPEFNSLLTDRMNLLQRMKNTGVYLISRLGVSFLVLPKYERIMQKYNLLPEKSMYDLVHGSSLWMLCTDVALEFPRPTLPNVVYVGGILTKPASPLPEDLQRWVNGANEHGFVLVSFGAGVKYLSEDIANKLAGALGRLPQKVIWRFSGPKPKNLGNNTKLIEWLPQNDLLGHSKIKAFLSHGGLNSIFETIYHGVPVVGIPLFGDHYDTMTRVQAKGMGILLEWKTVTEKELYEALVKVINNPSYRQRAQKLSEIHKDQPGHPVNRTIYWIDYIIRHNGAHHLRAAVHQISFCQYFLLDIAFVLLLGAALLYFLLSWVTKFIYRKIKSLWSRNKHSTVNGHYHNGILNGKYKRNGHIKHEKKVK
The assay is described as follows: Assay 1: CGT Enzymatic Assay (RapidFire/MS/MS, 0.01% Tween 80). In kind it is biochemical. As to conditions: Table 1, Compounds of Formula (I) and Formula (II), CGT enzymatic assay, read-out: IC50.

Molecules are shown by their SMILES. Read-outs that look alike come from different tables or passages of the source.

By IC50 is commonly meant the point on the concentration scale where inhibition reaches its midpoint.

Turning to `CCC1N(c2ccc(F)cc2)C(=O)N(c2ccc(F)cc2)C1(O)c1cccc(OC(F)(F)F)c1` (stereo not shown) [Compound 131, 5-ethyl-1,3-bis(4-fluorophenyl)-4-hydroxy-4-(3-(trifluoromethoxy)phenyl)imidazolidin-2-one], the IC50 was under 1 µM. With `COc1ccc(C2(O)C(=O)N(c3ccc(Br)cc3)C(=O)N2c2ccc(Br)cc2)cn1` (stereo not shown) [Example 202, 1,3-bis(4-bromophenyl)-5-hydroxy-5-(6-methoxypyridin-3-yl)imidazolidine-2,4-dione], the IC50 was in the range of 10 to 50 µM. Regarding `CC[C@H]1N(c2ccc(Cl)cc2)C(=O)N(c2ccc(Cl)cc2)C1(O)c1cccc(OC(F)F)c1` (stereo partly drawn) [Compound 118-2, (5R)-1,3-bis(4-chlorophenyl)-4-(3-(difluoromethoxy)phenyl)-5-ethyl-4-hydroxyimidazolidin-2-one], the IC50 is under 1 µM. On to `O=C1N(c2ccc(Cl)cc2)C2(CCC2)C(O)(c2cccc(OC(F)(F)F)c2)N1c1ccc(Cl)cc1` (stereo not shown) [Compound 242, 5,7-bis(4-chlorophenyl)-8-hydroxy-8-(3-(trifluoromethoxy)phenyl)-5,7-diazaspiro[3.4]octan-6-one], for which the half-inhibitory concentration (IC50) was under 1 µM. The same measure, in the same setting: for `C[C@H]1N(c2ccc(F)cc2)C(=O)N(c2ccc(F)cc2)C1(O)c1cccc(OC(F)(F)F)c1` (stereo partly drawn) [Compound 130-2, (5R)-1,3-bis(4-fluorophenyl)-4-hydroxy-5-methyl-4-(3-(trifluoromethoxy)phenyl)imidazolidin-2-one] the value was under 1 µM. As to `CC1N(c2ccc(Br)cc2)C(=O)N(c2ccc(Br)cc2)C1(O)c1cccc(OC(F)(F)F)c1` (stereo not shown) [Compound 66, 1,3-bis(4-bromophenyl)-4-hydroxy-5-methyl-4-(3-(trifluoromethoxy)phenyl)imidazolidin-2-one], the IC50 is under 1 µM. For `COc1ccc(N2C(=O)N(c3ccc(OC)cc3)C(O)(c3cccc(OC(F)(F)F)c3)C2C(C)C)cc1` (racemic) [Example 329, (5S)-4-hydroxy-5-isopropyl-1,3-bis(4-methoxyphenyl)-4-(3-(trifluoromethoxy)phenyl)imidazolidin-2-one and (5R)-4-hydroxy-5-isopropyl-1,3-bis(4-methoxyphenyl)-4-(3-(trifluoromethoxy)phenyl)imidazolidin-2-one], under “C6-NBD-dihydro-galactosylceramide readout”, the IC50 is under 1 µM. `O=C1N(c2ccc(Cl)cc2)[C@@]2(CCOC2)[C@@](O)(c2cccc(OC(F)(F)F)c2)N1c1ccc(Cl)cc1` [Compound 234-4, (4S,5R)-1,3-bis(4-chlorophenyl)-4-hydroxy-4-(3-(trifluoromethoxy)phenyl)-7-oxa-1,3-diazaspiro[4.4]nonan-2-one]: the IC50 was under 1 µM. As to `C[C@H]1N(c2ccc(Cl)cc2)C(=O)N(c2ccc(Cl)cc2)C1(O)c1cccc(Cl)c1` (single isomer, unassigned) [Compound 62-2], the concentration for half-maximal inhibition (IC50) is under 1 µM. With `CC1(c2ccccc2)N(c2ccc(Cl)cc2)C(=O)N(c2ccc(Cl)cc2)C1(O)c1ccccc1` (stereo not shown) [Compound 121, 1,3-bis(4-chlorophenyl)-4-hydroxy-5-methyl-4,5-diphenylimidazolidin-2-one], the IC50 fell in the range of 1 to 10 µM.

Regarding `O=C1N(c2ccc(Br)cc2)C(=O)C(O)(c2ccc(-c3ccc(F)cc3)cc2)N1c1ccc(Br)cc1` (stereo not shown) [Example 178, 1,3-bis(4-bromophenyl)-5-(4′-fluoro-[1,1′-biphenyl]-4-yl)-5-hydroxyimidazolidine-2,4-dione], the IC50 was over 50 µM. Still for that read-out and setting: the value for `O=C1N(c2ccc(Br)cc2)CC(O)(c2nc3ccccc3s2)N1c1ccc(Br)cc1` (stereo not shown) [Example 10, 4-(benzo[d]thiazol-2-yl)-1,3-bis(4-bromophenyl)-4-hydroxyimidazolidin-2-one] was over 50 µM; that for `CC1(C)N(c2ccc(Cl)cc2)C(=O)N(c2ccc(Cl)cc2)C1(O)c1cncc(C#N)c1` (stereo not shown) [Example 186, 5-(1,3-bis(4-chlorophenyl)-4-hydroxy-5,5-dimethyl-2-oxoimidazolidin-4-yl)nicotinonitrile] was under 1 µM.

The values above are taken from patent publication US20190134005A1 (BioMarin Pharmaceutical Inc., priority 2016, published 2019).
